From patent publication US20160145257A1, “SUBSTITUTED XANTHINES AND METHODS OF USE THEREOF” (Hydra Biosciences, Inc., priority 2013, published 2016)

Each compound was assayed against T1, hTRPC5 (Homo sapiens, UniProt Q9UL62) (assay: Whole-cell patch clamp, block of LaCl3-activated TRPC5 inward current). Settings: TRPC5-expressing HEK293 TREx cells, 80 μM LaCl3, inward current, IC50 estimated from 5 μM and 500 nM, read-out: hTRPC5 Patch La3+ Inwd (nM) (All Batches).
T1 construct: expressed in transfected cells; host or cells: HEK293 TREx cells with inducible TRPC5 expression
T1 sequence (Q9UL62 1-973): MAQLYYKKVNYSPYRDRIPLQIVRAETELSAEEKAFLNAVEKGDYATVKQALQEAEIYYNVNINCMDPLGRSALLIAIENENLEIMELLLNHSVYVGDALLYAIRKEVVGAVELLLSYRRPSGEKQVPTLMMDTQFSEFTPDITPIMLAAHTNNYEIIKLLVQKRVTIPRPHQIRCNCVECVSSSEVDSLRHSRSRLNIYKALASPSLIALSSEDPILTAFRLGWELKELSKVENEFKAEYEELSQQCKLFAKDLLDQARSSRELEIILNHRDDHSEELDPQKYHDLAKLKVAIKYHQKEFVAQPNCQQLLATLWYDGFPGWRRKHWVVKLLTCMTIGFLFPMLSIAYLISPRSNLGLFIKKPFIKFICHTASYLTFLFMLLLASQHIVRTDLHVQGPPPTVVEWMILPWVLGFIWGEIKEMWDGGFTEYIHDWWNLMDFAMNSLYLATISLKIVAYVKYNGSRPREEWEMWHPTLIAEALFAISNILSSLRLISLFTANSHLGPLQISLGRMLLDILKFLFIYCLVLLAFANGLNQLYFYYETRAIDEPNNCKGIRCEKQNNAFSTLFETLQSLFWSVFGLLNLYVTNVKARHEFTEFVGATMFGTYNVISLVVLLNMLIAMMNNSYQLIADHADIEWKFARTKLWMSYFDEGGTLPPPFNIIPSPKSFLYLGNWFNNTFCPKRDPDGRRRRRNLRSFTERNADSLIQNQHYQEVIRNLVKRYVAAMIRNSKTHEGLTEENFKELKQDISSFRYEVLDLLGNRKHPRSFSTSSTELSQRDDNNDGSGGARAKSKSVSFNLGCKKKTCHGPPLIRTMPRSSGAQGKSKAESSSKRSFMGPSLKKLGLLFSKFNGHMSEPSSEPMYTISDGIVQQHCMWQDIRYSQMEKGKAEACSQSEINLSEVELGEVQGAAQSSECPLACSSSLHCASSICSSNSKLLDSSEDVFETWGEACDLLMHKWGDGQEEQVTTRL
Format: cell-based
Procedure: In certain embodiments, exemplary compounds of Formula I and Formula II include the compounds described in Table 1 and in the Examples. A compound described herein may be tested for its ability to block both inward and outward currents through the TRPC5 channel, e.g., by an assay as described in Example 1. For example, IC50 of a compound of Formula I or Formula II was estimated by testing the compound at 5 μM and 500 nM. […] IC50 for a compound of Formula I or Formula II between 500 nM and 5 μM was similarly estimated. As shown, “A” refers to an IC50<100 nM. “B” refers to an IC50 between 100 nM and 500 nM. “C” refers to an IC50 between 500 nM and 1000 nM. “D” refers to an IC50 between 1 μM and 2 μM. “E” refers to an IC50 between 2 μM and 10 μM. “F” refers to […]. “ND” refers to compounds wherein the IC50 was not determined.
Patch clamp experiments permit the detection of currents through the TRPC5 channel in the cell line described above. In normal whole-cell patch clamp recordings, a glass electrode is brought into contact with a single cell and a high-resistance (gigaohm) seal is established with the cell membrane. The membrane is then ruptured to achieve the whole-cell configuration, permitting control of the voltage of the cell membrane and measurement of currents flowing across the membrane using the amplifier attached to the electrode and resulting in the replacement of cytoplasm with the pipette solution. A perfusion system permits control of the extracellular solution, including the addition of blockers and activators of the current. The current can be activated by including 1.4 μM free Ca^2+ in the pipette (intracellular) solution, and 80 μM LaCl3 in the extracellular solution.
TRPC5 cells were induced 20-48 hours, removed from growth plates, and replated at low density (to attain good single-cell physical separation) on glass coverslips for measurement. In some cases, cells were grown in low density overnight on glass coverslips. Patch clamp recordings were made in the whole-cell mode with a holding potential of −40 mV. Every 5 seconds, a voltage ramp was applied from −120 to +100 mV, 400 ms in duration. Currents elicited were quantified at −80 mV and +80 mV. The internal solution consisted of 140 mM cesium aspartate, 10 mM HEDTA, 2 mM CaCl2, 2.27 mM MgCl2 and 10 mM HEPES, pH 7.2, with 1,400 nM calculated free Ca^2+. The external solution consisted of 150 mM NaCl, 4.5 mM KCl, 1 mM MgCl2, 2 mM CaCl2, 10 mM HEPES, 10 mM glucose, 1 mM EGTA, pH 7.4. Upon addition of LaCl3, TRPC5 current was induced only in TRPC5-expressing cells and not in parental HEK293 TREx cells. Removal of the LaCl3 stimulus causes most of the current to go away. Potential blockers were tested for ability to block both inward and outward currents in the continued presence of LaCl3.
IC50 of a compound of Formula I or Formula II was estimated by testing the compound at 5 μM and 500 nM. […] IC50 for a compound of Formula I or Formula II between 500 nM and 5 μM was similarly estimated.

Compound	IC50 [nM]
CCC(=O)CSc1nc2c(c(=O)n(C)c(=O)n2C)n1Cc1cccc(Br)c1 [Compound 1, 7-(3-bromobenzyl)-1,3-dimethyl-8-(2-oxobutylthio)-1H-purine-2,6(3H,7H)-dione]	500 to 1000
Cn1c(=O)c2c(nc(SC(C)(C)C(=O)OC(C)(C)C)n2Cc2cccc(Br)c2)n(C)c1=O [Compound 3, Tert-butyl 2-(7-(3-bromobenzyl)-1,3-dimethyl-2,6-dioxo-2,3,6,7-tetrahydro-1H-purin-8-ylthio)-2-methylpropanoate]	100 to 500
CC(O)CSc1nc2c(c(=O)n(C)c(=O)n2C)n1Cc1cccc(Br)c1 (stereo not shown) [Compound 5]	2000 to 10000
CCOCCSc1nc2c(c(=O)n(C)c(=O)n2C)n1Cc1cccc(Br)c1 [Compound 6, 7-(3-bromobenzyl)-8-(2-ethoxyethylthio)-1,3-dimethyl-1H-purine-2,6(3H,7H)-dione]	100 to 500
Cn1c(=O)c2c(nc(SCC#N)n2Cc2cccc(Br)c2)n(C)c1=O [Compound 7]	2000 to 10000
Cn1c(=O)c2c(nc(SCc3ncc[nH]3)n2Cc2cccc(Br)c2)n(C)c1=O [Compound 8]	2000 to 10000
CCOC(=O)C(C)(C)Sc1nc2c(c(=O)n(C)c(=O)n2C)n1Cc1cccc(Br)c1 [Compound 9, Ethyl 2-(7-(3-bromobenzyl)-1,3-dimethyl-2,6-dioxo-2,3,6,7-tetrahydro-1H-purin-8-ylthio)-2-methylpropanoate]	< 100
Cn1c(=O)c2c(nc(SCc3cccnc3)n2Cc2cccc(Br)c2)n(C)c1=O [Compound 10, 7-(3-bromobenzyl)-1,3-dimethyl-8-(pyridin-3-ylmethylthio)-1H-purine-2,6(3H,7H)-dione]	2000 to 10000
Cn1c(=O)c2c(nc(SCc3ccncc3)n2Cc2cccc(Br)c2)n(C)c1=O [Compound 11, 7-(3-bromobenzyl)-1,3-dimethyl-8-(pyridin-4-ylmethylthio)-1H-purine-2,6(3H,7H)-dione]	2000 to 10000
Cn1c(=O)c2c(nc(SCc3ccccn3)n2Cc2cccc(Br)c2)n(C)c1=O [Compound 12, 7-(3-bromobenzyl)-1,3-dimethyl-8-(pyridin-2-ylmethylthio)-1H-purine-2,6(3H,7H)-dione]	500 to 1000
CCCC(=O)CSc1nc2c(c(=O)n(C)c(=O)n2C)n1Cc1cccc(Br)c1 [Compound 13, 7-(3-bromobenzyl)-1,3-dimethyl-8-(2-oxopentylthio)-1H-purine-2,6(3H,7H)-dione]	< 100
CCOCCS(=O)(=O)c1nc2c(c(=O)n(C)c(=O)n2C)n1Cc1cccc(Br)c1 [Compound 14, 7-(3-bromobenzyl)-8-(2-ethoxyethylsulfonyl)-1,3-dimethyl-1H-purine-2,6(3H,7H)-dione]	1000 to 2000
CCOCC[S+]([O-])c1nc2c(c(=O)n(C)c(=O)n2C)n1Cc1cccc(Br)c1 (stereo not shown) [Compound 15]	2000 to 10000
CCOCCSc1nc2c(c(=O)n(C)c(=O)n2C)n1Cc1cccc(Cl)c1 [Compound 16]	2000 to 10000
COCCOCCSc1nc2c(c(=O)n(C)c(=O)n2C)n1Cc1cccc(Br)c1 [Compound 17, 7-(3-bromobenzyl)-8-(2-(2-methoxyethoxy)ethylthio)-1,3-dimethyl-1H-purine-2,6(3H,7H)-dione]	100 to 500
CCOCCOc1nc2c(c(=O)n(C)c(=O)n2C)n1Cc1cccc(Br)c1 [Compound 18, 7-(3-bromobenzyl)-8-(2-ethoxyethoxy)-1,3-dimethyl-1H-purine-2,6(3H,7H)-dione]	1000 to 2000
COCCCSc1nc2c(c(=O)n(C)c(=O)n2C)n1Cc1cccc(Br)c1 [Compound 19, 7-(3-bromobenzyl)-8-(3-methoxypropylthio)-1,3-dimethyl-1H-purine-2,6(3H,7H)-dione]	100 to 500
CCc1coc(CSc2nc3c(c(=O)n(C)c(=O)n3C)n2Cc2cccc(Br)c2)n1 [Compound 20, 7-(3-bromobenzyl)-8-((4-ethyloxazol-2-yl)methylthio)-1,3-dimethyl-1H-purine-2,6(3H,7H)-dione]	100 to 500
CCOCCNc1nc2c(c(=O)n(C)c(=O)n2C)n1Cc1cccc(Br)c1 [Compound 21]	2000 to 10000
